The values below come from patent US20240360082A1, “SUBSTITUTED PYRIDONE COMPOUNDS USEFUL TO TREAT ORTH[…]” (priority 2021, published 2024).

The target in the first experiment is influenza A virus minigenome (PB2, PB1, PA, NP proteins) (UniProt P04665). The class given is cell-based. To be noted: read-out: RNP_ Hubei B IC50.
influenza A virus minigenome (PB2, PB1, PA, NP proteins), sequence (P04665 whole entry): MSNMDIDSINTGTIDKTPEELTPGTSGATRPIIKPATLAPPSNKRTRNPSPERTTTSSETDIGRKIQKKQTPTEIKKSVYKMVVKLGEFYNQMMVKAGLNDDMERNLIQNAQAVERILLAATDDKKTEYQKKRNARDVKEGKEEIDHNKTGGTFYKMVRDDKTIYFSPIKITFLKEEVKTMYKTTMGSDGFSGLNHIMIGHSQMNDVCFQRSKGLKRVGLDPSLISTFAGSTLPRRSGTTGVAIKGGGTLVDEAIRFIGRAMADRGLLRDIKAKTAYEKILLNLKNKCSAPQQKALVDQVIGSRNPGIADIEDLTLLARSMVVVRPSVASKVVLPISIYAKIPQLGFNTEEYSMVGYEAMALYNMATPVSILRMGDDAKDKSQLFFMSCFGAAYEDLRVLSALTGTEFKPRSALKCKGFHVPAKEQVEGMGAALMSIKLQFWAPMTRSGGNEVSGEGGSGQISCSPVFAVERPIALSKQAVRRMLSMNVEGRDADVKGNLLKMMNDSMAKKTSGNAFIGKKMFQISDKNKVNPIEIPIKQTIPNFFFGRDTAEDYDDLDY
On to `NC(=O)c1cc(-c2ccc(OCC3CO[C@@H]4[C@H](O3)C4(F)F)cc2)c(C(F)(F)F)[nH]c1=O` (stereo partly drawn) [Example 390, 5-(4-((cis-7,7-difluoro-2,5-dioxabicyclo[4.1.0]heptan-3-yl)methoxy)phenyl)-2-oxo-6-(trifluoromethyl)-1,2-dihydropyridine-3-carboxamide], for which the IC50 was in the range of 1 to 5 µM.

With `NC(=O)c1cc(-c2ccc(OC[C@H]3CO[C@H]4[C@@H](O3)C4(F)F)cc2)c(C(F)(F)F)[nH]c1=O` [Example 391, 5-(4-((trans-7,7-difluoro-2,5-dioxabicyclo[4.1.0]heptan-3-yl)methoxy)phenyl)-2-oxo-6-(trifluoromethyl)-1,2-dihydropyridine-3-carboxamide], the IC50 lay within 1 to 5 µM.

Consider `C[C@]12O[C@H](COc3ccc(-c4cc(C(N)=O)c(=O)[nH]c4C(F)(F)F)cc3)CO[C@H]1C2(F)F` [Example 394, 5-(4-(((1S,3S,6R)-7,7-difluoro-1-methyl-2,5-dioxabicyclo[4.1.0]heptan-3-yl)methoxy)phenyl)-2-oxo-6-(trifluoromethyl)-1,2-dihydropyridine-3-carboxamide], for which the IC50 fell in the range of 5 to 10 µM.

Turning to `C[C@@]12O[C@H](COc3ccc(-c4cc(C(N)=O)c(=O)[nH]c4C(F)(F)F)cc3)CO[C@@H]1C2(F)F` [Example 395, 55-(4-(((1R,3S,6S)-7,7-difluoro-1-methyl-2,5-dioxabicyclo[4.1.0]heptan-3-yl)methoxy)phenyl)-2-oxo-6-(trifluoromethyl)-1,2-dihydropyridine-3-carboxamide], the IC50 is 5 to 10 µM.

As for `C[C@@]12O[C@@H](COc3ccc(-c4cc(C(N)=O)c(=O)[nH]c4C(F)(F)F)cc3)CO[C@@H]1C2(F)F` [Example 396, 5-(4-(((1R,3R,6S)-7,7-difluoro-1-methyl-2,5-dioxabicyclo[4.1.0]heptan-3-yl)methoxy)phenyl)-2-oxo-6-(trifluoromethyl)-1,2-dihydropyridine-3-carboxamide], the IC50 fell in the range of 5 to 10 µM.

Take `C[C@]12O[C@@H](COc3ccc(-c4cc(C(N)=O)c(=O)[nH]c4C(F)(F)F)cc3)CO[C@H]1C2(F)F` [Example 397, 5-(4-(((1S,3R,6R)-7,7-difluoro-1-methyl-2,5-dioxabicyclo[4.1.0]heptan-3-yl)methoxy)phenyl)-2-oxo-6-(trifluoromethyl)-1,2-dihydropyridine-3-carboxamide]: the IC50 fell in the range of 5 to 10 µM.

On to `COC[C@H]1COC[C@@H](COc2ccc(-c3cc(C(N)=O)c(=O)[nH]c3C(F)(F)F)cc2)O1` [Example 398, 5-(4-(((2S,6S)-6-(methoxymethyl)-1,4-dioxan-2-yl)methoxy)phenyl)-2-oxo-6-(trifluoromethyl)-1,2-dihydropyridine-3-carboxamide], for which the IC50 was in the range of 5 to 10 µM.

With `COC[C@@H]1COC[C@@H](COc2ccc(-c3cc(C(N)=O)c(=O)[nH]c3C(F)(F)F)cc2)O1` [Example 399, 5-(4-(((2S,6R)-6-(methoxymethyl)-1,4-dioxan-2-yl)methoxy)phenyl)-2-oxo-6-(trifluoromethyl)-1,2-dihydropyridine-3-carboxamide], the IC50 is 5 to 10 µM.

On to `CC(C)OC[C@H]1COC[C@@H](COc2ccc(-c3cc(C(N)=O)c(=O)[nH]c3C(F)(F)F)cc2)O1` [Example 402, 5-(4-(((2S,6R)-6-(isopropoxymethyl)-1,4-dioxan-2-yl)methoxy)phenyl)-2-oxo-6-(trifluoromethyl)-1,2-dihydropyridine-3-carboxamide], for which the IC50 was in the range of 5 to 10 µM.

With `NC(=O)c1cc(-c2ccc(OC[C@@H]3COC[C@H](C4CC4)O3)cc2)c(C(F)(F)F)[nH]c1=O` [Example 404, 5-(4-(((2S,6S)-6-cyclopropyl-1,4-dioxan-2-yl)methoxy)phenyl)-2-oxo-6-(trifluoromethyl)-1,2-dihydropyridine-3-carboxamide], the IC50 fell in the range of 10 to 25 µM.

Still in this experiment, the particulars now being: read-out: RNP_Hubei B.
For the compound `NC(=O)c1cc(-c2ccc(OC(F)(F)C3COCCO3)cc2)c(C(F)(F)F)[nH]c1=O` (centres unmarked) [Example 389, 5-(4-((1,4-dioxan-2-yl)difluoromethoxy)phenyl)-2-oxo-6-(trifluoromethyl)-1,2-dihydropyridine-3-carboxamide], the IC50 lay in the range of 5 to 10 µM.
